# Reference: patent publication US12435046B2, “Alkynyl quinazoline compounds” (Black Diamond Therapeutics, Inc., priority 2019, dated 2025)
# Key:
# Assay type in all cases: cell-based
# Details in all cases: Table A; BaF3 cells, 3 days
# EGFR wt = molecular target: T1, EGFR wt (Homo sapiens, UniProt P00533); assay: BaF3 cell proliferation assay (CellTiterGlo), EGFR wt
# T1 construct: expressed in transfected cells; host or cells: BaF3 (murine pro-B) cells, retroviral transduction with pMXs-IRES-Blasticidin
# Protocol: (§1) Retroviral Production: EGFR mutants were subcloned into pMXs-IRES-Blasticidin (RTV-016, Cell Biolabs, San Diego, CA). Retroviral expression vector retrovirus was produced by transient transfection of HEK 293T cells with the retroviral EGFR mutant expression vector pMXs-IRES-Blasticidin (RTV-016, Cell Biolabs), pCMV-Gag-Pol vector and pCMV-VSV-G-Envelope vector. Briefly, HEK 293T/17 cells were plated in 100 mm collagen coated plate (354450, Corning Life Sciences, Tewksbury, MA) (4×10^5 per plate) and incubated overnight. The next day, retroviral plasmids (3 ng of EGFR mutant, 1.0 ng of pCMV-Gag-Pol and 0.5 ng pCMV-VSV-G) were mixed in 500 n1 of Optimem (31985, Life Technologies). The mixture was incubated at room temperature for 5 min and then added to Optimem containing transfection reagent Lipofectamine (11668, Invitrogen) and incubated for 20 minutes. Mixture was then added dropwise to HEK 293T cells. The next day the medium was replaced with fresh culture medium and retrovirus was harvested @ 24 and 48 hrs.
# (§2) Generation of EGFR mutant stable cell lines: BaF3 cells (1.5E5 cells) were infected with 1 ml of viral supernatant supplemented with 8 ng/ml polybrene by centrifuging for 30 min at 1000 rpm. Cells were placed in a 37° C. incubator overnight. Cells were then spun for 5 minutes to pellet the cells. Supernatant was removed and cells re-infected a fresh 1 ml of viral supernatant supplemented with 8 ng/ml polybrene by centrifuging for 30 min at 1000 rpm. Cells were placed in 37° C. incubator overnight. Cells were then maintained in RPMI containing 10% Heat Inactivated FBS, 2% L-glutamine containing 10 ng/ml IL-3. After 48 hours cells were selected for retroviral infection in 10 […] for one week. Blasticidin resistant populations were washed twice in phosphate buffered saline before plating in media lacking IL-3 to select for IL-3 independent growth.
# (§3) Assay for cell proliferation: BaF3 cell lines were resuspended at 1.3E5 c/ml in RPMI containing 10% Heat Inactivated FBS, 2% L-glutamine and 1% Pen/Strep and dispensed in triplicate (17.5E4 c/well) into 96 well plates. To determine the effect of drug on cell proliferation, cells incubated for 3 days in the presence of vehicle control or test drug at varying concentrations. Inhibition of cell growth was determined by luminescent quantification of intracellular ATP content using CellTiterGlo (Promega), according to the protocol provided by the manufacturer. Comparison of cell number on day 0 versus 72 hours post drug treatment was used to plot dose-response curves. The number of viable cells was determined and normalized to vehicle-treated controls. Inhibition of proliferation, relative to vehicle-treated controls was expressed as a fraction of 1 and graphed using PRISM® software (Graphpad Software, San Diego, CA). EC50 values were determined with the same application.
# EGFR V3 = molecular target: T2, EGFR V3 (Homo sapiens, UniProt P00533, DELINS30-297G); assay: BaF3 cell proliferation assay (CellTiterGlo), EGFR V3
# T2 construct: expressed in transfected cells; host or cells: BaF3 (murine pro-B) cells, retroviral transduction with pMXs-IRES-Blasticidin
# Protocol: as §1, §2, §3
# HER2 S310F = molecular target: T3, HER2 S310F (Homo sapiens, UniProt P04626, S310F); assay: BaF3 cell proliferation assay (CellTiterGlo), HER2 S310F
# T3 construct: expressed in transfected cells; host or cells: BaF3 (murine pro-B) cells
# HER2 YVMA = molecular target: T4, HER2 YVMA (Homo sapiens, UniProt P04626, INS775YVMA); assay: BaF3 cell proliferation assay (CellTiterGlo), HER2 YVMA
# T4 construct: expressed in transfected cells; host or cells: BaF3 (murine pro-B) cells
# T4 sequence (P04626 with tags, fused parts or gaps INS775YVMA): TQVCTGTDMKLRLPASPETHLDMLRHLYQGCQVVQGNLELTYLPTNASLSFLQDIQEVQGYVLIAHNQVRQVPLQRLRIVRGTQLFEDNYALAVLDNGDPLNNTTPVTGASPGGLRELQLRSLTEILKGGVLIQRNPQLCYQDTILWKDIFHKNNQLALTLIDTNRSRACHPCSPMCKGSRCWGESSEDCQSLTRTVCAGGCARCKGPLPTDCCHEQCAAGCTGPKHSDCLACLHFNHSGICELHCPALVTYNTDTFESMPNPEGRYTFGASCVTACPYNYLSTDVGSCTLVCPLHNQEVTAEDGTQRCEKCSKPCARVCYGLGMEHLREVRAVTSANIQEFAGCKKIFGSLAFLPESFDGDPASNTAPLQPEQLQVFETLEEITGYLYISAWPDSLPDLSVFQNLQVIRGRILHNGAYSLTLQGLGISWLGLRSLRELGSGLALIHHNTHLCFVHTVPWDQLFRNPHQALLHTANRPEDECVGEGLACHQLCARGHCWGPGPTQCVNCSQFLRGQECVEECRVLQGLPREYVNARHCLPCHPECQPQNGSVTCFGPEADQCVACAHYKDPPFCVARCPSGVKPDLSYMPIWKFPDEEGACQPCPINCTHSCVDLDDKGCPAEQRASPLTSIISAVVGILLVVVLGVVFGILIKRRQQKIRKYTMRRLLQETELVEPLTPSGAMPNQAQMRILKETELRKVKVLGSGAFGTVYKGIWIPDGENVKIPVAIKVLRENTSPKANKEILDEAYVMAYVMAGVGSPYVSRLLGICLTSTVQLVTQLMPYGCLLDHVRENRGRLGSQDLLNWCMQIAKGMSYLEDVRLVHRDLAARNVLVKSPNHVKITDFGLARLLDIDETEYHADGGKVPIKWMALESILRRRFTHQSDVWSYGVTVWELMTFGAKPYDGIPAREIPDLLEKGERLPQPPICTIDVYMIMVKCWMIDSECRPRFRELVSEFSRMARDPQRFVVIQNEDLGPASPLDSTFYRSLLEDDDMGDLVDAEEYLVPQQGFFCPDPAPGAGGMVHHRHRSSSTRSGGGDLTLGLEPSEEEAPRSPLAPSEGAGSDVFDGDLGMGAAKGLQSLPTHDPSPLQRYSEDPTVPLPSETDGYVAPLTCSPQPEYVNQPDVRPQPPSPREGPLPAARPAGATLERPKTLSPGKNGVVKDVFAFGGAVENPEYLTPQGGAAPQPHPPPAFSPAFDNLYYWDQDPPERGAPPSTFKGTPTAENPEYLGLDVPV
# T3 sequence (P04626 23-1255 S310F): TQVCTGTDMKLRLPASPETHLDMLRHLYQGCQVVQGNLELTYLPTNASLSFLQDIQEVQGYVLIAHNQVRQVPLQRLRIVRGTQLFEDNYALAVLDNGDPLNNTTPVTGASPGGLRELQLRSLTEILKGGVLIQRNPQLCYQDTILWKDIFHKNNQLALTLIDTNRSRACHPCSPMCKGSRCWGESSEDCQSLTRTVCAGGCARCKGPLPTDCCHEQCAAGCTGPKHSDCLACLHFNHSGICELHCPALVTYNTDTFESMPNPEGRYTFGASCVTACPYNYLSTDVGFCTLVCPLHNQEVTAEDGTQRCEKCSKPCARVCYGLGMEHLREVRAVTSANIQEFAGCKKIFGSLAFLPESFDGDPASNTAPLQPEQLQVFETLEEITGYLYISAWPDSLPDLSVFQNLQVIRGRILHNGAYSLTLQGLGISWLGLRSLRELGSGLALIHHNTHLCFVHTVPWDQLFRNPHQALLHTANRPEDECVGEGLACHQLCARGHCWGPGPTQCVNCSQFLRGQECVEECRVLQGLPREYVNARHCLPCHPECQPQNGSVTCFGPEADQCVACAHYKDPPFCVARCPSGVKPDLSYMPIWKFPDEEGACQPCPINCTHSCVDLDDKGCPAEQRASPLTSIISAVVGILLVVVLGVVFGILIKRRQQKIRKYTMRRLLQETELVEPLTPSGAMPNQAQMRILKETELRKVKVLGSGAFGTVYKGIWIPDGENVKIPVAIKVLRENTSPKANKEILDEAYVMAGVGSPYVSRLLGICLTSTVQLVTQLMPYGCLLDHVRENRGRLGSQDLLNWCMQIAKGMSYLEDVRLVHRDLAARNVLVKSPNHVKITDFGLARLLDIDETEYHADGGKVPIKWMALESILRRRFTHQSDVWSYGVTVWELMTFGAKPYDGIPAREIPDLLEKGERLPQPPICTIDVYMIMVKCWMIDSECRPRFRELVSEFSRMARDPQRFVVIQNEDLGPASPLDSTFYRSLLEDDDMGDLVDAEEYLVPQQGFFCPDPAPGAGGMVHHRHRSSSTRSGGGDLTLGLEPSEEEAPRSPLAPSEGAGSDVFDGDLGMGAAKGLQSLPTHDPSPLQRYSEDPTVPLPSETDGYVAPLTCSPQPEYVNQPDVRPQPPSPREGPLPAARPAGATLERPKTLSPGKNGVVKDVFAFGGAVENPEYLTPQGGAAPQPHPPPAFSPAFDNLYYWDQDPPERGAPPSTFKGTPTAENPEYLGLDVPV
# T2 sequence (P00533 with tags, fused parts or gaps DELINS30-297G): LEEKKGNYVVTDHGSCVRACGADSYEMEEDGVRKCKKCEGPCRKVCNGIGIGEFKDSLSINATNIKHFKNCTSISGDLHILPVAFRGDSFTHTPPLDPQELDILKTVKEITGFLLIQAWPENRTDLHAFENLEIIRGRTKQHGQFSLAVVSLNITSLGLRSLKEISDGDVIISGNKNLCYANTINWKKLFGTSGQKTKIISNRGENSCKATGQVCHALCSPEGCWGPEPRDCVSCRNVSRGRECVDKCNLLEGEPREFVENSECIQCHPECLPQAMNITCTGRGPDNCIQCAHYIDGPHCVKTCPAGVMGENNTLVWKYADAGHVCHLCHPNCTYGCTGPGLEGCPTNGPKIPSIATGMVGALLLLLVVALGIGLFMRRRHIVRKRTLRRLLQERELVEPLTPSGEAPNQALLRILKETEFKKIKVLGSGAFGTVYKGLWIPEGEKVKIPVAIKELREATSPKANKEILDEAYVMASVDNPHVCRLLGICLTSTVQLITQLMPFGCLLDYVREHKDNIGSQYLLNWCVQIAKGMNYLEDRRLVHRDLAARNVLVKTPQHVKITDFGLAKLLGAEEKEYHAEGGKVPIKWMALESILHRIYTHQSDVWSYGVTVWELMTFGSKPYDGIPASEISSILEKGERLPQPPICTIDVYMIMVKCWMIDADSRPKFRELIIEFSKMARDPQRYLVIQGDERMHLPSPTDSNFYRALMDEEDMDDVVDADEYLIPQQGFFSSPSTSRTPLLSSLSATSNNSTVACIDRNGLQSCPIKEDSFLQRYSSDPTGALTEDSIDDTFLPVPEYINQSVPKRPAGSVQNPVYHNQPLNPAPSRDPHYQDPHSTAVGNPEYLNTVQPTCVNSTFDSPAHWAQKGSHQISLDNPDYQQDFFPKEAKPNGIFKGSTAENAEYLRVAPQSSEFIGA
# T1 sequence (P00533 25-1210): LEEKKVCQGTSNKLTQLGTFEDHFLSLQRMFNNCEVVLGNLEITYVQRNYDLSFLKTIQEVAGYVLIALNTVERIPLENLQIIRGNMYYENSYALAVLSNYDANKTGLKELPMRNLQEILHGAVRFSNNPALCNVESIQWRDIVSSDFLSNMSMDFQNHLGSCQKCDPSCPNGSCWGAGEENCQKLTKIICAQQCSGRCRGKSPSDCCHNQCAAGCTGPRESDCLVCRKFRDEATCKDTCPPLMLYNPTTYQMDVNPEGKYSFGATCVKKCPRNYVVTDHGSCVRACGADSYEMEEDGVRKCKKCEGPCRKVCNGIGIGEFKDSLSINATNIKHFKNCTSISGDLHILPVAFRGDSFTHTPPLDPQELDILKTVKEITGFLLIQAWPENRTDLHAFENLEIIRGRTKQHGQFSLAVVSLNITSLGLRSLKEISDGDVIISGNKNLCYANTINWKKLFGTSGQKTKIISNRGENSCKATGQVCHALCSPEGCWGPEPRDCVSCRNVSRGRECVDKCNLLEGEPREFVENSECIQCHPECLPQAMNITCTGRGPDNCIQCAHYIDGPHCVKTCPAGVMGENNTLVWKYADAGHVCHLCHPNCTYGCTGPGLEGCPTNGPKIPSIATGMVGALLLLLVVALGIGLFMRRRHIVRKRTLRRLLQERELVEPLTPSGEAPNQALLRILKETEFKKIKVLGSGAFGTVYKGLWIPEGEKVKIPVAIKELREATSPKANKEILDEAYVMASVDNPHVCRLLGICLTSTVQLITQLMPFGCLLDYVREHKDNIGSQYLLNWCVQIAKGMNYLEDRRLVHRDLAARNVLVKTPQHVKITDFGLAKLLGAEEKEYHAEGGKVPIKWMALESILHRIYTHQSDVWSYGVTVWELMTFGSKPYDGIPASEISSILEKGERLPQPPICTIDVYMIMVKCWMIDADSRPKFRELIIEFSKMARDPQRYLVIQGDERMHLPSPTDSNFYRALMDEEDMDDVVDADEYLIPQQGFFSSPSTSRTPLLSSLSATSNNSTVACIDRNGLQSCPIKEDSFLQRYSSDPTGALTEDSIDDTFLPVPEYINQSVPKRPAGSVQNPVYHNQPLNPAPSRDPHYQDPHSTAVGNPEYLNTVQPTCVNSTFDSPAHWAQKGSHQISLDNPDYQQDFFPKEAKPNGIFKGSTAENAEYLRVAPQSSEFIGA
IC50 (EGFR wt),IC50 (EGFR V3),IC50 (HER2 S310F),IC50 (HER2 YVMA),Compound
100 to 500 nM,> 500 nM,> 500 nM,> 500 nM,"C=C(C)C(=O)Nc1cc2c(Nc3cccc(Cl)c3F)ncnc2cc1C#C[C@@]1(C)CCN(C)C1 [Compound 25, (R)—N-(4-((3-chloro-2-fluorophenyl)amino)-7-((1,3-dimethylpyrrolidin-3-yl)ethynyl)quinazolin-6-yl)methacrylamide]"
> 500 nM,≤ 50 nM,≤ 50 nM,50 to 100 nM,"C=CC(=O)Nc1cc2c(Nc3ccc(OCc4ccccn4)c(Cl)c3)ncnc2cc1C#C[C@@]1(C)CCN(C)C1 [Compound 14, (R)—N-(4-((3-chloro-4-(pyridin-2-ylmethoxy)phenyl)amino)-7-((1,3-dimethylpyrrolidin-3-yl)ethynyl)quinazolin-6-yl)acrylamide]"
50 to 100 nM,≤ 50 nM,50 to 100 nM,100 to 500 nM,"C=C(CO)C(=O)Nc1cc2c(Nc3cccc(Cl)c3F)ncnc2cc1C#C[C@@]12C[C@@H]1CN(C)C2 [Compound 26, N-[4-(3-chloro-2-fluoro-anilino)-7-[2-[(1R,5S)-3-methyl-3-azabicyclo[3.1.0]hexan-1-yl]ethynyl]quinazolin-6-yl]-2-(hydroxymethyl)prop-2-enamide]"
100 to 500 nM,≤ 50 nM,100 to 500 nM,> 500 nM,"C=CC(=O)Nc1cc2c(Nc3ccc(Cl)c(Cl)c3F)ncnc2cc1C#CC1(C)CCOC1 (stereo not shown) [Compound 63, N-(4-((3,4-dichloro-2-fluorophenyl)amino)-7-((3-methyltetrahydrofuran-3-yl)ethynyl)quinazolin-6-yl)acrylamide]"
100 to 500 nM,≤ 50 nM,50 to 100 nM,100 to 500 nM,"C=CC(=O)Nc1cc2c(Nc3cccc(Cl)c3F)ncnc2cc1C#CC1(OC)CCN(C)C1 (stereo not shown) [Compound 52, N-(4-((3-chloro-2-fluorophenyl)amino)-7-((3-methoxy-1-methylpyrrolidin-3-yl)ethynyl)quinazolin-6-yl)acrylamide]"
100 to 500 nM,≤ 50 nM,≤ 50 nM,≤ 50 nM,"C=CC(=O)Nc1cc2c(Nc3ccc(OCc4ccccn4)c(Cl)c3)ncnc2cc1C#C[C@]1(C)CCN(C)C1 [Compound 13, (S)—N-(4-((3-chloro-4-(pyridin-2-ylmethoxy)phenyl)amino)-7-((1,3-dimethylpyrrolidin-3-yl)ethynyl)quinazolin-6-yl)acrylamide]"
100 to 500 nM,≤ 50 nM,100 to 500 nM,100 to 500 nM,"C=CC(=O)Nc1cc2c(Nc3cccc(Cl)c3F)ncnc2cc1C#CC1(C)CN(C)C1 [Compound 11, N-(4-((3-chloro-2-fluorophenyl)amino)-7-((1,3-dimethylazetidin-3-yl)ethynyl)quinazolin-6-yl) acrylamide]"
100 to 500 nM,> 500 nM,50 to 100 nM,> 500 nM,"CN1C[C@H]2C[C@@]2(C#Cc2cc3ncnc(Nc4cccc(Cl)c4F)c3cc2NC(=O)/C=C/CN2CCCC(C(=O)O)C2)C1 (stereo partly drawn) [Compound 19, 1-[(E)-4-[[4-(3-chloro-2-fluoro-anilino)-7-[2-[(1R,5S)-3-methyl-3-azabicyclo[3.1.0]hexan-1-yl]ethynyl]quinazolin-6-yl]amino]-4-oxo-but-2-enyl]piperidine-3-carboxylic acid]"
> 500 nM,≤ 50 nM,≤ 50 nM,100 to 500 nM,"C=CC(=O)Nc1cc2c(Nc3ccc(OCc4ccccn4)c(Cl)c3)ncnc2cc1C#CC12CCC(CC1)N2C [Compound 71, N-(4-((3-chloro-4-(pyridin-2-ylmethoxy)phenyl)amino)-7-((7-methyl-7-azabicyclo[2.2.1]heptan-1-yl)ethynyl)quinazolin-6-yl)acrylamide]"
100 to 500 nM,≤ 50 nM,50 to 100 nM,> 500 nM,"C=CC(=O)Nc1cc2c(Nc3cccc(Cl)c3F)ncnc2cc1C#C[C@]1(C)CCN(C2COC2)C1 [Compound 58, (S)—N-(4-((3-chloro-2-fluorophenyl)amino)-7-((3-methyl-1-(oxetan-3-yl)pyrrolidin-3-yl)ethynyl)quinazolin-6-yl)acrylamide]"
100 to 500 nM,100 to 500 nM,100 to 500 nM,> 500 nM,"C=CC(=O)Nc1cc2c(Nc3cccc(Cl)c3F)ncnc2cc1C#C[C@]1(C)CCCN(C)C1 [Compound 53, (S)—N-(4-((3-chloro-2-fluorophenyl)amino)-7-((1,3-dimethylpiperidin-3-yl)ethynyl)quinazolin-6-yl)acrylamide]"
≤ 50 nM,≤ 50 nM,≤ 50 nM,100 to 500 nM,"C=CC(=O)Nc1cc2c(Nc3cccc(Cl)c3F)ncnc2cc1C#C[C@@H]1[C@H]2CN(C)C[C@@H]12 [Compound 78, N-(4-((3-chloro-2-fluorophenyl)amino)-7-(((1R,5S,6s)-3-methyl-3-azabicyclo[3.1.0]hexan-6-yl)ethynyl)quinazolin-6-yl)acrylamide]"
> 500 nM,100 to 500 nM,> 500 nM,> 500 nM,"C=CC(=O)Nc1cc2c(Nc3cccc(Cl)c3F)ncnc2cc1C#CC1(C)CCN(CC(F)(F)F)C1 (stereo not shown) [Compound 68, N-(4-((3-chloro-2-fluorophenyl)amino)-7-((3-methyl-1-(2,2,2-trifluoroethyl)-pyrrolidin-3-yl)ethynyl)quinazolin-6-yl)acrylamide]"
≤ 50 nM,≤ 50 nM,50 to 100 nM,100 to 500 nM,"C=CC(=O)Nc1cc2c(Nc3ccc(F)c(Cl)c3F)ncnc2cc1C#CC1(C)CCN(C)C1 (stereo not shown) [Compound 8, N-(4-((3-chloro-2,4-difluorophenyl)amino)-7-((1,3-dimethylpyrrolidin-3-yl)ethynyl)-quinazolin-6-yl)acrylamide]"
100 to 500 nM,≤ 50 nM,100 to 500 nM,100 to 500 nM,"C=CC(=O)Nc1cc2c(Nc3cccc(Cl)c3F)ncnc2cc1C#CC12CC1CN(C1COC1)C2 (stereo not shown) [Compound 64, N-(4-((3-chloro-2-fluorophenyl)amino)-7-((3-(oxetan-3-yl)-3-azabicyclo[3.1.0]hexan-1-yl)ethynyl)quinazolin-6-yl)acrylamide]"
50 to 100 nM,≤ 50 nM,≤ 50 nM,≤ 50 nM,"CC#CC(=O)Nc1cc2c(Nc3ccc(OCc4ccccn4)c(Cl)c3)ncnc2cc1C#CC1(C)CCN(C)C1 (stereo not shown) [Compound 70, N-(4-((3-chloro-4-(pyridin-2-ylmethoxy)phenyl)amino)-7-((1,3-dimethylpyrrolidin-3-yl)ethynyl)quinazolin-6-yl)but-2-ynamide]"
100 to 500 nM,≤ 50 nM,50 to 100 nM,100 to 500 nM,"C=CC(=O)Nc1cc2c(Nc3cccc(Cl)c3F)ncnc2cc1C#CC12CC1CN(C)C2 (stereo not shown) [Compound 65, N-(4-((3-chloro-2-fluorophenyl)amino)-7-((3-methyl-3-azabicyclo[3.1.0]hexan-1-yl)ethynyl)quinazolin-6-yl)acrylamide]"
100 to 500 nM,≤ 50 nM,100 to 500 nM,> 500 nM,"C=CC(=O)Nc1cc2c(Nc3cc(Cl)ccc3F)ncnc2cc1C#C[C@@H]1[C@H]2CN(C)C[C@@H]12 [Compound 75, N-(4-((5-chloro-2-fluorophenyl)amino)-7-(((1R,5S,6s)-3-methyl-3-azabicyclo[3.1.0]hexan-6-yl)ethynyl)quinazolin-6-yl)acrylamide]"

Compound,IC50 (EGFR wt),IC50 (EGFR V3),IC50 (HER2 S310F),IC50 (HER2 YVMA)
"C=CC(=O)Nc1cc2c(Nc3cccc(Cl)c3F)ncnc2cc1C#CC12CCN(CC1)CC2 [Compound 17, N-(4-((3-chloro-2-fluorophenyl)amino)-7-(quinuclidin-4-ylethynyl)-quinazolin-6-yl)acrylamide]",≤ 50 nM,≤ 50 nM,100 to 500 nM,100 to 500 nM
